Results as given in article PMC2248166, “Quantitative peptide binding motifs for 19 human and mouse MHC class I molecules derived using positional scanning combinatorial peptide libraries” (Immunome Research, 2008).

Legend:
HLA B*1501 = HLA B*1501 (Homo sapiens, UniProt P01889, A329T/A93T/A95T/C349S/D201E/D98Y/E187L/E204Q/E69M/E70A/K202T/N87E/Q94N/R155S/R180W/S121R/S35A/S48A/V306I/V36M/Y140S/Y91S); assay: biochemical; format: binding
HLA B*5101 = HLA B*5101 (Homo sapiens, UniProt P01889, A329T/A93T/A95T/C349S/D138N/D201E/D98Y/E187L/E204Q/E69T/G107R/I218V/K202T/L105A/L119W/N104I/Q94N/R106L/R155S/R180L/S101N/S121T/S35A/S48A/V306I/V36M/Y195H/Y91F); format: binding
HLA A*6802 = HLA A*6802 (Homo sapiens, UniProt P04439, A269V/D140Y/D185E/E176V/E277Q/E87N/F33Y/G231S/I121R/I166T/I218V/L180W/L300P/L318F/N151K/P208A/P217A/Q86R/R138H/R169H/S129P/T345S/V36M); format: binding
H-2 K^k = H-2 K^k (Mus musculus, UniProt P04223); format: binding
HLA B*0702 = HLA B*0702 (Homo sapiens, UniProt P01889); format: binding; settings: positional scanning combinatorial 9-mer library; normalized to 1.0 for the best residue at each position
HLA B*5801 = HLA B*5801 (Homo sapiens, UniProt P01889, A329T/C349S/D201E/D98Y/E176V/E187L/E204Q/E69T/G107R/I218V/I90N/K202T/L105A/L119I/N104I/N87E/Q89R/Q94S/R106L/R155S/R180L/R86G/S101N/S121R/S35A/S48A/T118I/V127L/V306I/V36M/Y140S/Y91M); format: binding
HLA A*3001 = HLA A*3001 (Homo sapiens, UniProt P04439, D140H/D185E/E176W/F33S/G80R/H175R/K168Q/R138E/R41S); assay: biochemical; format: binding
HLA A*3201 = HLA A*3201 (Homo sapiens, UniProt P04439, A270S/D101S/D185E/E176V/E277Q/F133L/G103R/G107R/G231S/H175R/I121M/I218V/I322F/K168Q/L105A/L300P/L318F/M331R/P208A/P217A/Q94H/R106L/R138Q/S129P/T104I/T323A/T345S/V100E/V321M/V358M); assay: biochemical; format: binding
HLA A*0201 = HLA A*0201 (Homo sapiens, UniProt P04439, D140Y/D185E/D98H/E176V/E277Q/G131W/G231S/I119V/I121R/I166T/I218V/L300P/L318F/N151K/N90K/P208A/P217A/Q86G/Q94H/R138H/R169H/T345S); settings: positional scanning combinatorial 9-mer library; normalized to 1.0 for the best residue at each position
HLA B*5301 = HLA B*5301 (Homo sapiens, UniProt P01889, A329T/A93T/A95T/C349S/D201E/D98Y/E176V/E187L/E204Q/E69T/G107R/I218V/K202T/L105A/L119I/N104I/Q94N/R106L/R155S/R180L/S101N/S121R/S35A/S48A/T118I/V127L/V306I/V36M/Y140S/Y91F); format: binding
H-2 D^b = H-2 D^b (Mus musculus, UniProt P01899); format: binding
HLA B*5802 = HLA B*5802 (Homo sapiens, UniProt P01889, A329T/C349S/D201E/D98Y/E176V/E187L/E204Q/E69T/G107R/I218V/I90N/K202T/L105A/N104I/N87E/Q89R/Q94S/R106L/R155S/R180L/R86G/S101N/S121W/S35A/S48A/V127L/V306I/V36M/Y140S/Y91M); format: binding
H-2 D^d = H-2 D^d (Mus musculus, UniProt P01900); format: binding
HLA B*3501 = HLA B*3501 (Homo sapiens, UniProt P01889, A329T/A93T/A95T/C349S/D201E/D98Y/E176V/E187L/E204Q/E69T/I218V/K202T/L119I/Q94N/R155S/R180L/S121R/S35A/S48A/T118I/V127L/V306I/V36M/Y140S/Y91F); format: binding
HLA B*0801 = HLA B*0801 (Homo sapiens, UniProt P01889, A93T/A95T/D138N/E176V/E187T/K202T/Q94N/R180D/S35A/V36M/Y33D/Y91F); assay: biochemical; format: binding
HLA B*2705 = HLA B*2705 (Homo sapiens, UniProt P01889, D138H/D201E/E176V/E204Q/G107R/H137Y/K202T/N104T/N87E/Q56L/Q94K/R106L/R155S/R180L/S101D/S121N/S48T/Y140D/Y33H/Y91C); format: binding; settings: positional scanning combinatorial 9-mer library; normalized to 1.0 for the best residue at each position
HLA B*1503 = HLA B*1503 (Homo sapiens, UniProt P01889, A329T/A93T/A95T/C349S/D201E/D98Y/E187L/E204Q/K202T/N87E/Q94N/R155S/R180L/S121R/S35A/V306I/V36M/Y140S/Y91S); assay: biochemical; format: binding
HLA B*5401 = HLA B*5401 (Homo sapiens, UniProt P01889, A329T/C349S/D138N/D201E/E176V/E187T/E204Q/E69G/I76V/K202T/L119W/R155S/R180L/S121T/S35A/S48A/V127L/V306I/V36M/Y140L); format: binding

H-2 D^d, sequence (P01900 whole entry, looked up): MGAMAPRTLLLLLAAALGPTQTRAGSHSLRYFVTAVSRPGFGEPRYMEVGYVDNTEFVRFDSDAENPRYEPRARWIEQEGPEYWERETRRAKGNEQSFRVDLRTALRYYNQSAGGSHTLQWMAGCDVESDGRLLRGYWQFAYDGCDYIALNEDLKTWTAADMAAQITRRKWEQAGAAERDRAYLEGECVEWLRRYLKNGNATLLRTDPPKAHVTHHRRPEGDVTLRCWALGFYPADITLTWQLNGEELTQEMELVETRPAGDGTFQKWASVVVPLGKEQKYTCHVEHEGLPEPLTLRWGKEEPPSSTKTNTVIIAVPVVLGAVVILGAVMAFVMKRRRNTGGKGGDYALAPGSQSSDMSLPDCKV
H-2 D^b, sequence (P01887 21-119): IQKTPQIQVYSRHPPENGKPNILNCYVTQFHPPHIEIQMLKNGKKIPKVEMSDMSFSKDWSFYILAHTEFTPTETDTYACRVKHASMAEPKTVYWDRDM
H-2 D^b, sequence (P01899 25-362): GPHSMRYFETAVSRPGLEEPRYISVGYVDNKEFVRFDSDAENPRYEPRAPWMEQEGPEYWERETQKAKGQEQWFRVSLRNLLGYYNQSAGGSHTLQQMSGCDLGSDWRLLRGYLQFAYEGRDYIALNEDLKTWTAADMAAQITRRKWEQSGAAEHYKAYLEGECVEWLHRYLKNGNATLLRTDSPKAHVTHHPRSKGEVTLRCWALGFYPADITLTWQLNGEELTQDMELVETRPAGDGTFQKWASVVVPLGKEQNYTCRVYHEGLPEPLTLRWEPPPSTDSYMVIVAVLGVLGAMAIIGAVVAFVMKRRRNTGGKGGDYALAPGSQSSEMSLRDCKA
H-2 K^k, sequence (P01887 21-119): as the sequence (P01887 21-119) above
H-2 K^k, sequence (P04223 22-369): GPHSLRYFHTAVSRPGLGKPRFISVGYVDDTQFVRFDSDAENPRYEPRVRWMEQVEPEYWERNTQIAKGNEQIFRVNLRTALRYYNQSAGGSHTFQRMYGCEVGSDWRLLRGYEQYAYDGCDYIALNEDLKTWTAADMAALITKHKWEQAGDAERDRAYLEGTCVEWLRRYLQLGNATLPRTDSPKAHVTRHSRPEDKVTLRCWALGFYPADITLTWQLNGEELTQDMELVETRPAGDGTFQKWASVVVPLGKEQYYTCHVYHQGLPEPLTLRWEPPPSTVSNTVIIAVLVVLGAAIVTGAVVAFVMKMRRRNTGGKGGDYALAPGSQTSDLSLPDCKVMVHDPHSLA

| Sequence | Normalized average relative binding affinity (ARB), HLA B*1501 (HLA B*1501) | Normalized average relative binding affinity (ARB), HLA B*5101 (HLA B*5101) | Normalized average relative binding affinity (ARB), HLA A*6802 (HLA A*6802) | Normalized average relative binding affinity (ARB), H-2 Kk (H-2 K^k) | Normalized average relative binding affinity (ARB), HLA B*0702 (HLA B*0702) | Normalized average relative binding affinity (ARB), HLA B*5801 (HLA B*5801) | Normalized average relative binding affinity (ARB), HLA A*3001 (HLA A*3001) | Normalized average relative binding affinity (ARB), HLA A*3201 (HLA A*3201) | Normalized average relative binding affinity (ARB), HLA A*0201 (HLA A*0201) | Normalized average relative binding affinity (ARB), HLA B*5301 (HLA B*5301) | Normalized average relative binding affinity (ARB), H-2 Db (H-2 D^b) | Normalized average relative binding affinity (ARB), HLA B*5802 (HLA B*5802) | Normalized average relative binding affinity (ARB), H-2 Dd (H-2 D^d) | Normalized average relative binding affinity (ARB), HLA B*3501 (HLA B*3501) | Normalized average relative binding affinity (ARB), HLA B*0801 (HLA B*0801) | Normalized average relative binding affinity (ARB), HLA B*2705 (HLA B*2705) | Normalized average relative binding affinity (ARB), HLA B*1503 (HLA B*1503) | Normalized average relative binding affinity (ARB), HLA B*5401 (HLA B*5401) |
| --- | --- | --- | --- | --- | --- | --- | --- | --- | --- | --- | --- | --- | --- | --- | --- | --- | --- | --- |
| XXYXXXXXX [3064.0060] | 0.60 | 0.38 | 0.26 | 0.52 | 0.061 | 0.34 | 0.016 | 1.0 | 0.88 | 0.078 | 0.24 | 0.72 | 0.0028 | 0.29 | 0.13 | 0.40 | 0.44 | 0.11 |
| XVXXXXXXX [3064.0038] | 0.39 | 0.10 | 1.0 | 0.0062 | 0.086 | 0.14 | 1.0 | 0.23 | 0.098 | 0.10 | 0.20 | 0.12 | 0.016 | 0.062 | 0.17 | 0.0016 | 0.017 | 0.024 |
| XDXXXXXXX [3064.0023] | 0.0094 | 0.022 | 0.0075 | 0.13 | 0.0029 | 0.0033 | 0.012 | 0.025 | 0.0016 | 0.0088 | 0.036 | 0.030 | 0.013 | 0.018 | 0.014 | 0.0016 | 0.0054 | 0.0009 |
| XXMXXXXXX [3064.0051] | 0.77 | 1.0 | 1.0 | 1.0 | 1.0 | 0.48 | 0.028 | 0.94 | 1.0 | 1.0 | 0.31 | 0.57 | 0.0095 | 1.0 | 0.90 | 0.87 | 0.33 | 0.24 |
